The nature of series [1]: in vivo.
Series [2] can be described thus: Rotarod / ataxis and reflex retardation. (In general: The rotarod test checks motor coordination on a turning rod.)
Series [3] is described as follows: LD50 (acute toxicity). As to conditions: in vivo, po.
The subject of series [4] is yohimbine lethality. Nature of the series: Potentiation of yohimbine lethality. In kind it is in vivo, CFLP male mice. How it is done:
To investigate the yohimbine-potentiating effect, CFLP male mice each weighing 20 to 25 g. were treated orally with the compounds according to the invention, and 1 hour after this treatment yohimbine was injected subcutaneously into the animals in a dosage of 20 mg./kg.

In series [5] the test system is liver microsomal enzymes. The series can be described thus: Enzyme inductive effect (shortening of duration of sleeping after hexobarbital). In kind it is in vivo, Wistar female rats. The conditions noted are these: for Average duration of sleeping ± S.E.: Dosage 60 mg./kg. p.o., hexobarbital 40 mg./kg. i.v. 24 hours later, control 27.4 ± 3.02. The protocol: To investigate the enzyme inductive effect, Wistar female rats, each weighing 40 to 50 g. were treated with pure solvent, or with a dosage of 60 mg./kg. of phenobarbital or the compound to be tested, respectively. 24 hours after this treatment 40 mg./kg. of hexobarbital were administered intravenously into the animals. The decrease of the elimination period and the liver enzyme induction was expressed as the shortening of duration of sleeping.

A short description of series [6]: Harmful effects on the kidneys. As to conditions: in words, compared with phenacetine. The class given is in vivo.
Series [7] in a line: Antipyretic effect (yeast- and pyragro-treated rats, rectal temperature). The class given is in vivo, male rats. The conditions noted are these: Dosage 40 mg./kg. orally; rectal temperature recorded for 5 hours. The protocol: To test the antipyretic effect, a 15% yeast suspension was administered to male rats each weighing 180 ±10 g. No food was given to the animals, they could consume, however, arbitrary amount of water. 16 hours after the administration of yeast the rectal temperature of the animals was taken, and the animals were treated with pyragro in an intravenous dosage of 50 M bact./animal. The compound to be tested was administered orally into the animals, thereafter the change in rectal temperature both for the treated and the control animals was recorded for 5 hours, using an "Elab" type electrothermometer. Phenacetine, used as reference substance, and the compounds of the invention were administered in dosages of 40 mg./kg. body weight.

Series [8] can be described thus: Effect on the central nervous system. The class given is in vivo. As to conditions: in words.

Each structure is given as a SMILES string.

This note sets out measurements from patent US3989701A, “Diamine-benzophenones and a process for the preparation thereof” (Richter Gedeon Vegyeszeti Gyar Rt., priority 1973, dated 1976).

Consider `CN1CCN(c2ccc(C(=O)c3ccccc3)cc2N)CC1` [C3, 3-amino-4-(N-methyl-piperazino)-benzophenone], for which the TD50 in series [1] was found to be 160 mg/kg. Further, in series [2] (in the active dosage), the “ataxis or reflex retardation” value was “causes no ataxis or reflex retardation”. Moreover, the LD50 in series [3] is greater than 3000 mg/kg. Besides, in series [4] (Mus musculus, sc, yohimbine 20 mg./kg. s.c. 1 hour after treatment, deaths counted at 24 hours, probit analysis), the ED50 worked out at 30 mg/kg. The “antidepressant activity / yohimbine lethality increasing effect (in words)” value in series [4] (compared with imipramine where stated) was “inferior in antidepressant activity to imipramine”.
For the molecule `CCN(c1ccccc1)c1ccc(C(=O)c2ccccc2)cc1N` [C6, 3-amino-4-(N-ethyl-N-phenylamino)-benzophenone], the “Average duration of sleeping ± S.E.” value in series [5] came to 11.6 ± 2.71 min. For the same molecule, the LD50 in series [3] was greater than 400 mg/kg.
The like results for `CC(C)CN(CC(C)C)c1ccc(C(=O)c2ccccc2)cc1N` [C7, 3-amino-4-(N,N-diisobutylamino)-benzophenone] were, in that order, 10.0 ± 1.92 min and greater than 600 mg/kg.
In the case of `Nc1cc(C(=O)c2ccccc2)ccc1N1CCOCC1` [C8, 3-amino-4-morpholino-benzophenone], the “harmful effects on the kidneys” value in series [6] is recorded as “no harmful effects on the kidneys”. Besides, the LD50 in series [3] was greater than 3000 mg/kg. This molecule came in with a Decrease of temperature in series [7] of -1.0 °C.
In the case of `CCC(=O)Nc1cc(C(=O)c2ccccc2)ccc1N1CCOCC1.Cl` [C11, 3-propionylamino-4-morpholino-benzophenone HCl], the “effect on the central nervous system” value in series [8] is “no effect on the central nervous system”. In series [5], the “Average duration of sleeping ± S.E.” value amounted to 9.0 ± 1.30 min. Moreover, the “enzyme-inducing effect (in words)” value in series [5] (compared with phenobarbital where stated) is on record as “the same in strength as for phenobarbital”. Also, the LD50 in series [3] is greater than 450 mg/kg.
As for `CCCCCCCCCCCCCCCC(=O)Nc1cc(C(=O)c2ccccc2)ccc1N1CCOCC1` [C12, 3-palmitoylamino-4-morpholino-benzophenone], the “Average duration of sleeping ± S.E.” value in series [5] came to 10.4 ± 1.02 min. The same molecule registered an LD50 in series [3] greater than 500 mg/kg.
`CN(C)CCCN1c2ccccc2CCc2ccccc21` [Imipramine, 5-(3-dimethylaminopropyl)-10,11-dihydro-5H-dibenz(b,f)azepin, reference compound] showed a TD50 in series [2] (rotarod) of 28 mg/kg.
In turn, `CCOc1ccc(NC(C)=O)cc1` [Phenacetine, reference compound] registered an LD50 in series [3] of 2400 mg/kg. The same molecule yielded a Decrease of temperature in series [7] of -1.0 °C.
On to `CCC1(c2ccccc2)C(=O)NC(=O)NC1=O` [Phenobarbital, reference compound], for which the “Average duration of sleeping ± S.E.” value in series [5] came out at 5.4 ± 1.63 min. In series [3], this molecule showed an LD50 of 240 mg/kg.

Broadly, the LD50 is the dose expected to kill half of the subjects tested. A high value points to lower toxicity. Usually ED50 stands for the midpoint of the dose-response relation.
